Experimental data reported in PMC9130233, “An inhibitor of RORγ for chronic pulmonary obstructive disease treatment” (Scientific Reports, 2022).

Experiments:
[1] = test system: IL-17 cytokine from rat splenocytes; assay: IL-17 inhibition, rat splenocytes; type: cell-based; settings: Splenocyte, read-out: potency, rat IL-17 inhibition
[2] = test system: IL-17F cytokine from human PBMC; assay: IL-17F inhibition, human PBMC; type: cell-based; settings: hPBMC, read-out: potency, IL-17F levels
[3] = test system: IL-17 release in human neutrophils; assay: IL-17 release, human neutrophils, PMA + ionomycin; type: cell-based; settings: Neutrophil, n = 4, read-out: potency, IL-17 release inhibition
Method: The human neutrophils were isolated by Ficoll-Hypaque by centrifugation of blood from healthy subjects at 700 g for 30 min, followed by erythrocyte lysis with distilled water for 30 s. Cells were washed in PBS and post 1 h treatment with PCCR-1, cells were stimulated with 50 ng/mL PMA and 2 µg/mL Ionomycin. After 18 h the supernatant was collected for IL-17 estimation by ELISA.

[4] = test system: IL-17 in peritoneal macrophages; assay: IL-17 release, mouse peritoneal macrophages, LPS; type: cell-based; settings: Peritoneal macrophage, n = 2, read-out: IC50, IL-17 inhibition
Method: The peritoneal neutrophils or macrophages were isolated from C57BL/6 male mice or BALB/c female mice (6–8 wks; 18–22 g) injected with 3% or 4% thioglycollate broth. After 4 h or 4 days, RPMI medium was injected into the peritoneal cavity of mouse and peritoneal lavage was collected. The lavage was pooled and spun at 800 rpm for 10 min. The pellet was re-suspended in 1X Gey’s solution for 5 min followed by PBS wash. In case of neutrophils, the isolated cells were seeded in 48 well plate for 1.5 h. After 1.5 h, the supernatant containing peritoneal neutrophils were collected and centrifuged at 2000 rpm for 10 min and the pellet were re-suspended in 2% RPMI. In case of isolated peritoneal macrophages, the cells were seeded in 48 well plate for 3–4 h followed by PBS wash. Both the neutrophils and macrophages were treated with PCCR-1 in 2% RPMI for 1 h followed by stimulation with 10 µg/ml or 5 µg/ml of LPS for 18 h or 24 h. The supernatant collected for IL-17 estimation by ELISA.

LXRα = test system: T1, LXRα; assay: TR-FRET selectivity binding assay, LXRα
T1 construct: purchased Invitrogen
Description: (§1) Based on the homology of the ligand binding domains, 3 different isoforms of ROR (hRORα, hRORβ and hRORγ) are reported. Small variations in the LBD regions possibly lead to differences in competitive binding between the nuclear receptors of the ROR isoforms (Fig. 1b). Similar to the assessment of RORγ binding assay, TR-FRET binding assays were also used to assess the affinity of PCCR-1 for other ROR isoforms. […] This was reconfirmed in cellular functional assays for the selected isoforms and nuclear receptors using Gal4 DBD with luciferase reporter system from Indigo (PA, USA). […] In addition, both cellular agonist and antagonist effects as well as for enzyme activity were evaluated with a known reference compound for each target, using a radiolabeled method (Eurofins Cerep, France, Table 1).
(§2) For selectivity, the ROR isoforms RORα, FXR, LXRα, LXRβ, RXR, RARα were incubated with compound for 60 min at 22 °C followed by detection mix containing respective agonist (All trans retinoic acid for RARα, T0901317 for LXRα, LXRβ, 9-cis Retinoic acid for RXR, GW-4064 for FXR) and coactivator peptide (FD22 for RORα, PGC1α for RXR, RARα, TRAP220 for LXRα, LXRβ, SRC2-2 for FXR) and Tb-anti GST antibody prepared in assay buffer were added into a 384-well white plate. Reading taken after overnight incubation and the data analysis done as per the protocol mentioned in RORγt-LBD and co-activator ligand binding assay.

RXR = assay: TR-FRET selectivity binding assay, RXR
Description: as §1, §2

Alpha 1A = biological target: T2, Alpha 1A (Homo sapiens, UniProt P35348); assay: Cerep panel, Alpha 1A (antagonist); type: cell-based; settings: read-out: IC50 Alpha 1A (antg)
T2 construct: Eurofins Cerep
T2 sequence (P35348 whole entry): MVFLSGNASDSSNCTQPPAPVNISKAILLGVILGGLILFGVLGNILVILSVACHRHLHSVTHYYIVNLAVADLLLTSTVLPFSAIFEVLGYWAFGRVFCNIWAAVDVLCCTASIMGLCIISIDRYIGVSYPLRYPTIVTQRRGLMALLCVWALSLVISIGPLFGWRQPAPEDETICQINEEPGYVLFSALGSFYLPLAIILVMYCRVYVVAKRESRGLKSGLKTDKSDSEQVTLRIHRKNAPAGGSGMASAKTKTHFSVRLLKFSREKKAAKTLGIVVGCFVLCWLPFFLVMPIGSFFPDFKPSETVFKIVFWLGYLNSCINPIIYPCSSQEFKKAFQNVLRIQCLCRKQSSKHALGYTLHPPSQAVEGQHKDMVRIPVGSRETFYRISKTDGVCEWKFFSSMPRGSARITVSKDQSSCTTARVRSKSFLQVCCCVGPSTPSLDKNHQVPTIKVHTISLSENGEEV
Description: as §1

[5] = test system: total leukocytes, neutrophils and macrophages in BAL fluid of cigarette smoke exposed mice; assay: Acute cigarette smoke induced pulmonary inflammation mice model; type: in vivo, mouse
Description: Cigarette smoke exposure for 7 days caused significant increase in the total cell count in BAL fluid, including leukocytes, neutrophils and macrophages as compared to an air exposed control group.
Male C57BL/6 mice aged 8–10 weeks were obtained from the animal facility of Glenmark Pharmaceuticals Ltd. All animal experiments were approved by IAEC (institutional Animal Ethics Committee) as per the guideline set up by The Committee for the Purpose of Control and Supervision of Experiments on Animals (CPCSEA), India (CPCSEA is a statutory Committee of Department of Animal Husbandry and Dairying (DAHD), Ministry of Fisheries, Animal Husbandry and Dairying (MoFAH&D), India and constituted under the Prevention of Cruelty to Animals (PCA) Act, 1960., India). All animal experiments and procedures were performed in accordance with CPCSEA and IAEC guidelines and regulations (Registration number 231/2000/CPCSEA).In addition to that, all animal experimentation complies with the guidelines of Animal Research: Reporting In Vivo Experiments (ARRIVE). Male C57BL/6 mice were exposed to either room air or cigarette smoke (CS) from 10 cigarettes (Kentucky Research Cigarettes 3R4F) for 50 min, twice daily for 7 days in a whole body box exposure system (SIU24, ProMech Lab Holding AB, Sweden). […] All aspirates of BAL were pooled and total number of cells were determined using a hemocytometer. […]

CCn1c(C(C)(C)Oc2ccc(F)cc2F)nc2cc(NC(=O)Cc3ccc(S(=O)(=O)CC)cc3)ccc21 [PCCR-1]
IC50 [1]: 80.6 nM | IC50 [2]: 788 nM | IC50 [3]: 3660 nM | IC50 [4]: 1390 nM | % Inhibition LXRα (LXRα; 1 µM): 11.38% | % Inhibition LXRα (LXRα; 10 µM): 30.37% | Fold over hRORγ, LXRα (LXRα; vs RORg IC50 31.87 nM): > 313.7 fold | % Inhibition RXR (RXR; 1 µM): 0.00% | % Inhibition RXR (RXR; 10 µM): 8.24% | Fold over hRORγ, RXR (RXR; vs RORg IC50 31.87 nM): > 313.7 fold | IC50 (Alpha 1A): 190 nM | inhibition of total leukocytes in BAL fluid ([5]; intranasal once a day for 7 days, between 1 µg and 50 µg/animal): dose dependent inhibition | cigarette smoke mediated increase in neutrophil and macrophage counts in BAL fluid ([5]; intranasal, 10, 30, 50 and 100 µg per mouse): significantly obtunded
